The target of one test is LISA314 WT. Description: Affinity analysis by SPR (Biacore assay), LISA314 WT. The format is binding, Streptomyces avidinii. As to conditions: SPR Biacore T100, protein immobilized on Sensor Chip NTA, equilibrium value analysis, read-out: Dissociation constant: KD. The method, then: (§1) For affinity analysis, Biacore T100 was used. Specifically, the protein that had been fractionated by gel filtration chromatography was immobilized using Sensor Chip NTA. As a running buffer, 0.5% Tween20, HBS-P+ was used. Immobilization of the protein on nickel NTA and ligand capture were carried out according to the template program included therewith.
(§2) The amount of a ligand immobilized on a sensor chip was adjusted within the range of 1608 RU to 8042 RU, so as to suppress mass transport limitation. As analytes, biocytin and Compound 29 (the structure thereof is shown below) synthesized in Example 1 were used. It is to be noted that biocytin is a main existence form of biotin.
(§3) With regard to the concentrations of the analytes, in the case of biocytin, eight 2-fold dilution series were prepared from 1 μM, and in the case of Compound 29, twelve 2-fold dilution series were prepared from 16 μM. The measurement was carried out at a flow rate of 30 μl/min, for a contact time of 120 seconds, and for a dissociation time of 600 seconds. For the analysis of the data, sensorgrams for all concentrations were incorporated into analysis software, the equilibrium value analysis was then carried out, and the dissociation constant KD was then calculated.
On the technique in general: Surface plasmon resonance follows binding to a sensor surface in real time, without labels.

Another test concerns the target LISA314 V21 (Streptomyces avidinii, UniProt P22629, E125D/E140N/N47D/R108K/R127K/S51D/Y107S/Y46S). Description: Affinity analysis by SPR (Biacore assay), LISA314 V21. The format is binding. Conditions: SPR Biacore T100, protein immobilized on Sensor Chip NTA, equilibrium value analysis, read-out: Dissociation constant: KD. The method, then:
as §1, §2, §3

Each structure is given as a SMILES string.

LISA314 V21, sequence (P22629 25-183 Y46S/N47D/S51D/Y107S/R108K/E125D/R127K/E140N limits assumed): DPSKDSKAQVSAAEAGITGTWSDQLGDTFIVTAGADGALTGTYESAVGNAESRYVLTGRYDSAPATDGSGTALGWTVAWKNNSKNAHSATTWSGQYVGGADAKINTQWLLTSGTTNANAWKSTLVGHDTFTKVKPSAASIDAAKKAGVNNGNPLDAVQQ

As usually defined, the Kd is the concentration at which binding is half-saturated. On to `N[C@@H](CCCCNC(=O)CCCC[C@@H]1SC[C@@H]2NC(=O)N[C@@H]21)C(=O)O` [Biocytin, biocytin], for which the dissociation constant Kd stood at 2.38 nM on LISA314 WT and 348 nM on LISA314 V21.

These data come from patent US9670255B2 (priority 2013, dated 2017).
